Measured values published in ChEMBL document CHEMBL5143549, “Phenothiazine, anthraquinone and related tricyclic derivatives as inhibitors of monoamine oxidase” (Bioorg Med Chem, 2022).

Tests used:
[1] = target: T1, Amine oxidase [flavin-containing] A (Homo sapiens, UniProt P21397); test: Inhibition of recombinant human MAO-A expressed in baculovirus infected BTI insect cells using kynuramine as substrate after 20 mins by fluorescence spectrophotometric assay
T1 sequence (P21397 whole entry): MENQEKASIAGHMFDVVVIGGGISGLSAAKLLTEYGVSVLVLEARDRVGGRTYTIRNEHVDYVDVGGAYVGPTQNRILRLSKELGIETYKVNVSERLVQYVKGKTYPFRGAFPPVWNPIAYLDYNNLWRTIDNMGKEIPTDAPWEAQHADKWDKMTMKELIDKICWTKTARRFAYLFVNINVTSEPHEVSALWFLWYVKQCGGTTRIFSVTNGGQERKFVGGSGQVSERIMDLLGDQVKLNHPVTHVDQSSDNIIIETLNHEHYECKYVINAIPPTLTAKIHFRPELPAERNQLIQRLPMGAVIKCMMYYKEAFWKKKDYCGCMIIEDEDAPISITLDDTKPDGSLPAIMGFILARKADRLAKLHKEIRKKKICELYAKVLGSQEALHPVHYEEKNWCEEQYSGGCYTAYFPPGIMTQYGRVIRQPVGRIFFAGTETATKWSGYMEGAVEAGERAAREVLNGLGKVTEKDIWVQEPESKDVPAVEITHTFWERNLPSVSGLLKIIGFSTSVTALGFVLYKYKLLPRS

[2] = target: T2, Amine oxidase [flavin-containing] B (Homo sapiens, UniProt P27338); test: Inhibition of recombinant human MAO-B expressed in baculovirus infected BTI insect cells using kynuramine as substrate after 20 mins by fluorescence spectrophotometric assay
T2 sequence (P27338 whole entry): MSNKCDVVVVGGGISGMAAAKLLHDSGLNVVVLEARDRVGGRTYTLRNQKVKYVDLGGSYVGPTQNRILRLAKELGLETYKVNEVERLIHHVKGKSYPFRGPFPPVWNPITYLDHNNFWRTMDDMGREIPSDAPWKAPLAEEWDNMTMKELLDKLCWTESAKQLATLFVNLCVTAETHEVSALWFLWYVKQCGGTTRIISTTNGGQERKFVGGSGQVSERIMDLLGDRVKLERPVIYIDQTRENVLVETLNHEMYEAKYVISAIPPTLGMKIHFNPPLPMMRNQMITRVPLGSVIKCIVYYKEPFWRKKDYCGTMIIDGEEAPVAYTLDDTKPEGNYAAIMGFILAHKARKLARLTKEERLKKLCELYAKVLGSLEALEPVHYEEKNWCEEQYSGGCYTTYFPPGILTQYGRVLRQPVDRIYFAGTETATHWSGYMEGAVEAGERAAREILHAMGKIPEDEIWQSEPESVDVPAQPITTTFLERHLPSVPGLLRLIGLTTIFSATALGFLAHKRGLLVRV

[3] = species: Homo sapiens; test: Selectivity index, ratio IC50 for recombinant human MAO-B to IC50 for recombinant human MAO-A
[4] = target: T1, Amine oxidase [flavin-containing] A; test: Inhibition of recombinant human MAO-A expressed in baculovirus infected BTI insect cells using kynuramine as substrate after 20 mins by Lineweaver-Burk plot analysis
[5] = target: T2, Amine oxidase [flavin-containing] B; test: Inhibition of recombinant human MAO-B expressed in baculovirus infected BTI insect cells using kynuramine as substrate after 20 mins by Lineweaver-Burk plot analysis

O=C1c2ccc(O)c(O)c2C(=O)c2c(O)ccc(O)c21 [QUINALIZARIN]
IC50 [1]: 17 µM

c1ccc2c(c1)Cc1ccccc1O2 [XANTHENE]
IC50 [1]: 24.8 µM
IC50 [2]: 7.42 µM
Ratio IC50 [3]: 0.32

Nc1ccc(N)c2c1C(=O)c1ccccc1C2=O
IC50 [1]: 1.06 µM

O=C1c2ccc(O)cc2C(=O)c2ccc(O)cc21 [ANTHRAFLAVICACID]
IC50 [1]: 11.5 µM
IC50 [2]: 5.62 µM
Ratio IC50 [3]: 0.49

O=C1c2cccc(O)c2C(=O)c2c(O)cc(CO)cc21 [ALOE-EMODIN]
IC50 [1]: 1.77 µM
IC50 [2]: 21.9 µM
Ratio IC50 [3]: 12.4

O=C1c2cccc(O)c2C(=O)c2cccc(O)c21 [ANTHRARUFIN]
IC50 [1]: 30.8 µM

O=C1c2ccccc2C(=O)c2c(O)c(O)cc(O)c21 [PURPURIN]
IC50 [1]: 7.99 µM
IC50 [2]: 40.2 µM
Ratio IC50 [3]: 5.03

Nc1ccc2c(c1N)C(=O)c1ccccc1C2=O
IC50 [1]: 2.28 µM
IC50 [2]: 2.41 µM
Ratio IC50 [3]: 1.06

O=C1c2ccccc2Cc2ccccc21 [ANTHRONE]
IC50 [1]: 1.89 µM

O=C1c2cccc(O)c2C(=O)c2c(O)cccc21 [DANTHRON]
IC50 [1]: 10.7 µM
IC50 [2]: 58.7 µM
Ratio IC50 [3]: 5.49

Clc1ccc2c(c1)Nc1ccccc1S2
IC50 [1]: 1.22 µM

O=C1c2ccccc2C(=O)c2cnccc21
IC50 [1]: 20.2 µM
IC50 [2]: 4.28 µM
Ratio IC50 [3]: 0.21

O=C1c2ccccc2C(=O)c2ccccc21 [ANTHRAQUINONE]
IC50 [1]: 122 µM

CC1(C)CC(=O)C2=C(C1)C(=O)C1=C(C2)C(=O)CC(C)(C)C1
IC50 [1]: 51 µM

O=C1c2ccccc2C(=O)c2c(O)ccc(O)c21 [QUINIZARIN]
IC50 [1]: 0.065 µM
IC50 [2]: 110 µM
Ratio IC50 [3]: 1690
Ki [4]: 0.039 µM

CN1c2ccccc2Sc2ccccc21
IC50 [1]: 24.9 µM

O=C1C(=O)c2ccccc2-c2ccccc21 [9,10-PHENANTHRENEQUINONE]
IC50 [1]: 1.92 µM

COc1ccc2c(c1)Sc1ccc(Cl)cc1N2
IC50 [1]: 0.576 µM
IC50 [2]: 1.34 µM
Ki [5]: 0.045 µM

O=C1c2ccccc2C(=O)c2c1ccc1c(=O)c3ccccc3[nH]c21
IC50 [1]: 85.6 µM

OC1c2ccccc2Oc2ccccc21
IC50 [1]: 28.4 µM
IC50 [2]: 92 µM
Ratio IC50 [3]: 3.24

Nc1c(C(=O)O)c2nc3c(C(=O)O)cccc3oc-2cc1=O [CINNABARINIC ACID]
IC50 [1]: 45.3 µM
IC50 [2]: 65 µM
Ratio IC50 [3]: 1.43

Cc1ccc2nc3c(ccc4ccccc43)c(C)c2c1
IC50 [1]: 95.1 µM

Clc1c2ccccc2nc2ccccc12
IC50 [1]: 12.1 µM
IC50 [2]: 91.9 µM
Ratio IC50 [3]: 7.6

O=c1c2ccccc2oc2ccccc12 [XANTHONE]
IC50 [1]: 0.623 µM

Nc1c2ccccc2nc2ccccc12 [AMINACRINE]
IC50 [1]: 26 µM
IC50 [2]: 112 µM
Ratio IC50 [3]: 4.31

Cc1cc(O)c2c(c1)C(=O)c1cc(O)cc(O)c1C2=O [EMODIN]
IC50 [1]: 4.32 µM
IC50 [2]: 3.24 µM
Ratio IC50 [3]: 0.75
